Assays:
S. sanguinis [1] = test: S. mutans / S. sanguinis competition model, S. sanguinis survival (Example 2); assay type: cell-based, Streptococcus sanguinis
Source text: The effect of MUC5B on S. mutans and S. sanguinis competition and coexistence was examined. To examine the effect of MUC5B, a model was developed to allow sufficient competition between S. mutans and S. sanguinis (FIG. 7). The two bacteria compete when one colonizes the surface and the second bacteria is introduced after some time.
The presence of 0.3% mucins in control medium, BHI containing 1% sucrose (S Medium), enhances S. sanguinis survival when S. mutans is the primary colonizer (FIG. 8A). * statistically significant difference determined by Student's t test (p<0.05). […] When the ratios of bacteria are equal (FIG. 8C), there is less competition, and effect of MUC5B is small. When the ratio is slightly skewed (FIG. 8B), competition increases and the protective effect of MUC5B is visible. * statistically significant difference determined by Student's t test (p<0.05). The protective effect of MUC5B may increase as inter-species competition increases. […] MUC5B may play a role in establishing a healthy oral microbiome.
(§1) In FIG. 9, the biofilm is grown, then the supernatant is removed and the biofilm washed with PBS. To remove adherent cells, the bottom of the wells are scraped with a sterile pipette tip. Suspended cells are diluted, plated on agar and […] until colonies are visible.

S. mutans [2] = test: S. mutans attachment and biofilm formation on glass (Example 2); assay type: cell-based, Streptococcus mutans; settings: 0.3% polymer in BHI with 1% sucrose, compared to BHI with 1% sucrose
Description: as §1
As shown in FIG. 10A and FIG. 10B and FIG. 11A and FIG. 11B, salivary mucins decrease S. mutans attachment and biofilm formation. […] Error bars represent SDs. […] Scale Bars 20 μm.

S. mutans [3] = test: S. mutans growth curve and viable cell count (Example 2); assay type: cell-based, Streptococcus mutans; settings: 0.3% polymer in BHI with 1% sucrose
Source text: As shown in FIG. 12 and FIG. 13, S. mutans survival is unaffected by salivary mucins. […] Error bars represent SDs. […] Error bars represent SDs.

S. mutans [4] = test: CFU count assay, biofilm formation and total cells, single-species model, S. mutans; assay type: cell-based, Streptococcus mutans UA159; settings: for reduction of S. mutans biofilm formation: 0.4% polymer
Description: (§2) For all experiments, S. mutans (bacterial strain Streptococcus mutans UA159) and S. sanguinis (erythromycin-resistant Streptococcus sanguinis JFP36) were grown overnight in Brain Heart Infusion (BHI) medium (Becton, Dickinson and Company). Before inoculating an experiment the cells were pelleted, washed with half-strength BHI containing 1% (wt/vol) sucrose (Sigma-Aldrich Company), then resuspended in half-strength BHI containing 1% sucrose. Acid-washed glass beads (425-600 μm, Sigma-Aldrich Company) were added to the resuspended bacteria to break up bacterial aggregates then the culture was vortexed for ten pulses of two seconds each. […] All experiments were performed in chambered glass slides at 37° C. with 5% CO2.
(§3) Equal numbers of CFU were inoculated into chambered glass slides then incubated. After a given amount of time, the supernatant was used to gently wash the biofilm to resuspend unattached cells, then the supernatant was removed. PBS was added to the wells then the biofilm was scraped using a sterile pipette tip. The supernatant and biofilm were vortexed with glass beads to individualize cells then the suspension was diluted, plated on BHI agar and incubated for 24-36 hours. […] Statistically significant differences were determined using the Student's t test, with P<0.05 considered significant.
(§4) The effect of MUC5B on S. sanguinis and S. mutans biofilm formation in single-species models was evaluated using colony forming units to quantify surface attached cells and the total number of viable cells in the supernatant and biofilm combined. Bacteria were grown in chambered glass slides in the presence of half-strength BHI with 1% sucrose and 0.4% MUC5B. […] Half-strength BHI was used to provide consistent media conditions throughout experiments in this study. […] All comparisons of viable CFU discussed in the results are determined relative to the control with half-strength BHI and 1% sucrose.

S. sanguinis [5] = test: CFU count assay, biofilm formation and total cells, single-species model, S. sanguinis; assay type: cell-based, Streptococcus sanguinis JFP36; settings: for reduction of S. sanguinis biofilm formation: 0.4% polymer, relative to control
Description: as §2, §3, §4

S. mutans [6] = test system: S. mutans
Description: For dual-species models where S. mutans was the primary colonizer, S. mutans (10^7) was inoculated and incubated for 3 hours then S. sanguinis (10^6) was inoculated. For dual-species models where S. sanguinis was the primary colonizer, S. sanguinis (10^8) was inoculated, incubated for 3 hours, then S. mutans (10^7) was inoculated. After the secondary colonizer was inoculated, the dual-species culture was incubated until the time points indicated. For experiments quantifying biofilm formation, at the end of the experiment the supernatant was used to gently wash the biofilm to resuspend unattached cells, then the supernatant was removed. […] For experiments quantifying total cells, at the end of the experiment a sterile pipette tip was used to scrape the biofilm, then the suspension of biofilm and supernatant cells was vortexed with glass beads. […] Statistically significant differences were determined using the Student's t test, with P<0.05 considered significant.
An in vitro competition model was used to determine the effects of MUC5B on S. mutans and S. sanguinis biofilm formation when co-cultured. […] After 4 hours of co-culture, the supernatant was removed and the number of S. mutans and S. sanguinis in the biofilm were quantified by colony forming units. […] All comparisons of viable CFU discussed in the results are determined relative to the control with half-strength BHI and 1% sucrose. […]

S. sanguinis [7] = test: Dual-species competition model, S. mutans primary colonizer: S. sanguinis CFU; assay type: cell-based, Streptococcus sanguinis JFP36; settings: for increase of live S. sanguinis cells (secondary colonizer): S. mutans primary colonizer
Description: (§5) Agar was incubated for 24-36 hours.

S. sanguinis [8] = test: Dual-species competition model, S. sanguinis primary colonizer: S. sanguinis CFU; assay type: cell-based, Streptococcus sanguinis JFP36; settings: 4 hours of co-culture
Description: as §5

S. mutans [9] = test: Dual-species competition model, S. sanguinis primary colonizer: S. mutans CFU; assay type: cell-based, Streptococcus mutans UA159; settings: for increase of S. mutans CFU (secondary colonizer): S. sanguinis primary colonizer
Description: For dual-species models where S. mutans was the primary colonizer, S. mutans (10^7) was inoculated and incubated for 3 hours then S. sanguinis (10^6) was inoculated. For dual-species models where S. sanguinis was the primary colonizer, S. sanguinis (10^8) was inoculated, incubated for 3 hours, then S. mutans (10^7) was inoculated. After the secondary colonizer was inoculated, the dual-species culture was incubated until the time points indicated. For experiments quantifying biofilm formation, at the end of the experiment the supernatant was used to gently wash the biofilm to resuspend unattached cells, then the supernatant was removed. PBS was added to the wells then the biofilm was scraped using a sterile pipette tip. For experiments quantifying total cells, at the end of the experiment a sterile pipette tip was used to scrape the biofilm, then the suspension of biofilm and supernatant cells was vortexed with glass beads. For both experiments, cell suspensions were diluted then plated on BHI agar containing 10 μg/ml erythromycin to select for S. sanguinis and BHI agar with 1 U/ml bacitracin to select for S. mutans. Agar was incubated for 24-36 hours. […] Statistically significant differences were determined using the Student's t test, with P<0.05 considered significant.
An in vitro competition model was used to determine the effects of MUC5B on S. mutans and S. sanguinis biofilm formation when co-cultured. In this model, the pioneering colonizer was incubated for 3 hours then the secondary colonizer was inoculated and co-cultured for 4 hours (FIG. 15). The competition model used in this study is based on previous work by Kreth et al, J. Bacteriol. 187:7193-7203 (2005). In addition, sequential inoculation allows us to study competition in models where either S. sanguinis or S. mutans is the dominant species, which is relevant to the natural environment of the oral cavity. After 4 hours of co-culture, the supernatant was removed and the number of S. mutans and S. sanguinis in the biofilm were quantified by colony forming units. This method was used to evaluate biofilm formation when S. mutans is the primary colonizer (FIG. 16A) and when S. sanguinis is the primary colonizer (FIG. 16B). All comparisons of viable CFU discussed in the results are determined relative to the control with half-strength BHI and 1% sucrose.
To evaluate the effect of MUC5B on the viability of S. mutans and S. sanguinis in a dual-species competition model, the primary colonizer was incubated for 3 hours then inoculated the secondary colonizer and evaluated the total number of viable cells for each species over several hours (FIG. 15). […] Comparisons of viable CFU discussed in the results are determined relative to the control with half-strength BHI and 1% sucrose.

S. mutans [10] = test: S. mutans growth curve, mono-species culture (Example 3); assay type: cell-based, Streptococcus mutans UA159
Description: (§6) The suspensions were vortexed with glass beads to individualize cells, then approximately 10^6 cells were inoculated into wells of a 96-well polystyrene plate. At 2-hour intervals the bottom of the wells were scraped to remove any adherent cells, mixed, and an aliquot was removed, diluted and plated on BHI agar. Agar was incubated and CFU were counted after 24-36 hours.
(§7) The growth of S. mutans and S. sanguinis in the same medium used for competition experiments was evaluated to determine if the observed increase in viable cells in the presence of MUC5B (FIGS. 17A-C and FIGS. 18A-C) was due to enhanced bacterial growth. […] Growth in PBS containing MUC5B was studied to better understand if S. mutans and S. sanguinis can utilize MUC5B as a nutrient source when other nutrients are limited.

S. sanguinis [11] = test: S. sanguinis growth curve, mono-species culture (Example 3); assay type: cell-based, Streptococcus sanguinis JFP36
Description: as §6, §7

## MUC5B: salivary mucin MUC5B purified by FPLC from pooled human submandibular saliva
S. sanguinis [1]; 0.3% mucins in BHI with 1% sucrose, S. sanguinis inoculated 3 hours after S. mutans, 4 hours incubation, p<0.05
  S. sanguinis survival when S. mutans is the primary colonizer: enhances
S. sanguinis [1]; ratio slightly skewed (FIG. 8B)
  protective effect, ratio of bacteria slightly skewed: visible
S. sanguinis [1]; ratios of bacteria equal (FIG. 8C)
  effect on S. sanguinis / S. mutans competition, equal ratios of bacteria: small
S. mutans [2]
  levels of S. mutans attachment and biofilm formation on glass: significantly reduces
S. mutans [3]
  growth of S. mutans (growth curve): does not alter the growth
S. mutans [3]; timepoints up to 24 hours
  number of viable S. mutans cells (bactericidal effect): no bactericidal effects
S. mutans [4]; 6 hours
  total number of viable S. mutans cells (biofilm and supernatant): decreased slightly
S. mutans [4]; 6 hours, relative to half-strength BHI with 1% sucrose
  reduction of S. mutans biofilm formation: 94%
S. mutans [4]; 6 hours, with MUC5B (control without polymer 66%)
  S. mutans cells in the biofilm as share of total cells: 13%
S. mutans [4]; 9 hours
  total number of S. mutans cells: no significant effect
S. mutans [4]; 9 hours, relative to control
  reduction of S. mutans biofilm formation: 92%
S. sanguinis [5]; 6 and 9 hours
  number of viable S. sanguinis in the biofilm and supernatant: did not change
S. sanguinis [5]; 6 hours
  reduction of S. sanguinis biofilm formation: 94%
S. sanguinis [5]; 9 hours
  reduction of S. sanguinis biofilm formation: 86%
S. mutans [6]; 4 hours of co-culture, relative to control
  decrease of S. mutans (primary colonizer) biofilm formation: 95%
S. mutans [6]; S. mutans primary colonizer, 5 hours of co-culture
  effect on total viable S. mutans cells: no effect
S. sanguinis [7]; S. mutans pioneering species, 4 hours of co-culture
  increase of S. sanguinis (secondary colonizer) biofilm formation: 313%
S. sanguinis [7]; 4 hours of co-culture
  increase of live S. sanguinis cells (secondary colonizer): 1670%
S. sanguinis [7]; 5 hours of co-culture
  increase of live S. sanguinis cells (secondary colonizer): 8700%
S. sanguinis [8]; S. sanguinis pioneering species
  reduction of S. sanguinis (pioneering species) biofilm formation: 68%
S. sanguinis [8]; S. sanguinis primary colonizer
  increase of viable S. sanguinis cells (primary colonizer): 826%
S. mutans [9]; S. sanguinis pioneering species, 4 hours of co-culture
  effect on S. mutans (secondary colonizer) biofilm formation: no significant effect
S. mutans [9]; 4 hours of co-culture
  increase of S. mutans CFU (secondary colonizer): 74%
S. mutans [9]; 5 hours of co-culture
  increase of S. mutans CFU (secondary colonizer): 235%
S. mutans [9]; 6 hours of co-culture
  increase of S. mutans CFU (secondary colonizer): 568%
S. mutans [10]; 0.4% polymer in half-strength BHI with 1% sucrose, time points up to 10 hours
  effect on S. mutans growth: slightly reduced or had no effect
S. mutans [10]; PBS with 0.4% MUC5B
  S. mutans growth with MUC5B as nutrient source: neither bacterium can utilize MUC5B to enhance growth
S. sanguinis [11]; 0.4% polymer in half-strength BHI with 1% sucrose
  effect on S. sanguinis growth: not significantly changed
S. sanguinis [11]; PBS with 0.4% MUC5B
  S. sanguinis growth with MUC5B as nutrient source: neither bacterium can utilize MUC5B to enhance growth

Source: US10088484B2, “Isolated mucins and different microorganisms, and methods of use” (Massachusetts Institute of Technology, priority 2015, dated 2018)
